Source: patent publication US20250092014A1, “COMPOUNDS AND METHODS OF ACTIVATING LIPOPROTEIN LIPASE” (Metrea Biosciences, Inc., priority 2021, published 2025)

Target: T1, LPL:sGPIHBPI complex (Homo sapiens, UniProt P06858)
T1 sequence (P06858 28-475): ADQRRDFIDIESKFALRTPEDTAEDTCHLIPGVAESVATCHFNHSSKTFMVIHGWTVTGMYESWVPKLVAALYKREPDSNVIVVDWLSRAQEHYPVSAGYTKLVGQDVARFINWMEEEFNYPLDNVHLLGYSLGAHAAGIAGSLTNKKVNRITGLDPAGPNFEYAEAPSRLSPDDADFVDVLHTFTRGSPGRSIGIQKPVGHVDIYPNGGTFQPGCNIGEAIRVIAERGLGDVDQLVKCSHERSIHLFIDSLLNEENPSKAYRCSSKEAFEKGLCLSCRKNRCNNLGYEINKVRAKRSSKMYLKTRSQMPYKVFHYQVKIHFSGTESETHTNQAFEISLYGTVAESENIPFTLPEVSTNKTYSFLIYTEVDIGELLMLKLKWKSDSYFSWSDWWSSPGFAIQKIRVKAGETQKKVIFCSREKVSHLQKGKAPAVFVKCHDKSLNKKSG
T1 sequence (Q8IV16 21-151 partner limits assumed): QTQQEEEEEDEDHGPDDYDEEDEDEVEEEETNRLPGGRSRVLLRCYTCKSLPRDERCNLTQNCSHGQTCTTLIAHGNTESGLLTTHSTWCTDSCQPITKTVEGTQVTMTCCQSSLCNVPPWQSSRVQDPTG
Experiment: VLDL assay (LPL:sGPIHBP1 pre-incubated with ANGPTL4, VLDL substrate, Amplex Red readout)
Type: biochemical
Settings: read-out: VLDL qAC50
Procedure: The assay was performed in black I536-well plates using purified proteins. To identify compounds that stimulate LPL activity either by directly activating LPL or by inhibiting the antagonist ANGPTL4, the LPL:sGPIHBPI complex was pre-incubated with ANGPTL4 to decrease LPL activity by 80%. After a 60 min pre-incubation, the coupled enzyme system supplemented with Amplex Red reagent was added. The enzymatic reaction was started by adding the VLDL substrate. 120 min after VLDL addition, the reaction was stopped using SDS and the fluorescence intensity was measured.
40 or 45 nl of compound solution in 100% DMSO were placed in test plate. Then LPL:sGPIHBPI was added to all wells (diluted in assay buffer to 80 nM; 1 μl/well). This was followed by an addition of ANGPTL4 to compounds and neutral controls (diluted in assay buffer to 84 nM; 1 μl/well). The assay buffer was added to stimulator control (1 μl/well). Then the plates were centrifuged and pre-incubated 60 min at RT. A NEFA (1:2 diluted in PBS) supplemented with Amplex Red (40 μM was further added to all wells (1 μl/well). The reaction was then started by adding substrate to all wells (diluted in VLDL buffer to 16 Vg/ml, 1 μl/well). The plates were further centrifuged (800 rpm for 1 my) and incubated 120 m at RT (=reaction time). The reaction was then by adding SDS to all wells (diluted in water to 2.5%, 2 μl/well) and further incubated 30 mi at RT. The fluorescence intensity (ex 540 nm/em 590 nm) was measured on a Pherastar (BMG) using 20 flashes.

| Structure (SMILES) | EC50 [µM] |
| --- | --- |
| Cc1nc(Cn2nc(C(=O)Nc3cc(C(=O)Nc4ccc(F)cc4CC(=O)O)ccc3N3CCCCC3)c3ccccc32)no1 [Compound 125, 2-(5-fluoro-2-(3-(1-((5-methyl-1,2,4-oxadiazol-3-yl)methyl)-1H-indazole-3-carboxamido)-4-(piperidin-1-yl)benzamido)phenyl)acetic acid] | 6.4 |
| CC1CCCCN1c1ccc(C(=O)Nc2ccc(F)cc2CC(=O)O)cc1NC(=O)c1nn(CC(F)(F)F)c2ccccc12 (stereo not drawn) [Example 67] | 2.5 |
| CCC1CCCCN1c1ccc(C(=O)Nc2ccc(F)cc2CC(=O)O)cc1NC(=O)c1nn(CC(F)(F)F)c2ccccc12 (stereo not drawn) [Example 72] | 2.7 |
| O=C(O)Cc1cc(F)ccc1NC(=O)c1ccc(N2CCCOCC2)c(NC(=O)c2nn(CC(F)(F)F)c3ccccc23)c1 [Example 63] | 10 |
| O=C(O)Cc1cc(F)ccc1NC(=O)c1ccc(N2CCCCC2)c(NC(=O)c2nn(CC3COCCO3)c3ccccc23)c1 (stereo not drawn) [Compound 132, 2-(2-(3-(1-((1,4-dioxan-2-yl)methyl)-1H-indazole-3-carboxamido)-4-(piperidin-1-yl)benzamido)-5-fluorophenyl)acetic acid] | 7.4 |
| O=C(O)Cc1cc(F)ccc1NC(=O)c1ccc(N2CCCCC2)c(NC(=O)Nc2nn(CC(F)(F)F)c3ccccc23)c1 [Compound 129, 2-(5-fluoro-2-(4-(piperidin-1-yl)-3-(3-(1-(2,2,2-trifluoroethyl)-1H-indazol-3-yl)ureido)benzamido)phenyl)acetic acid] | 3.3 |
| CC1CCCN(c2ccc(C(=O)Nc3ccc(F)cc3CC(=O)O)cc2NC(=O)c2nn(CC(F)(F)F)c3ccccc23)C1 (stereo not drawn) [Example 73] | 2.2 |
| O=C(O)Cc1cccc(Cl)c1NC(=O)c1ccc(N2CCCCC2)c(NC(=O)c2nn(CC(F)(F)F)c3ccccc23)c1 [Compound 25, 2-(3-chloro-2-(4-(piperidin-1-yl)-3-(1-(2,2,2-trifluoroethyl)-1H-indazole-3-carboxamido)benzamido)phenyl) acetic acid] | 5 |
| O=C(O)Cc1cc(F)ccc1NC(=O)c1ccc(N2CCCCC2)c(NC(=O)c2nn(CC(F)(F)F)c3ccccc23)n1 [Compound 45, 2-(5-fluoro-2-(5-(piperidin-1-yl)-6-(1-(2,2,2-trifluoroethyl)-1H-indazole-3-carboxamido)picolinamido)phenyl)acetic acid] | > 25 |
| O=C(O)Cc1cc(F)ccc1NC(=O)c1ccc(N2CCCCC2)c(NC(=O)c2nn(CCN3CCOCC3)c3ccccc23)c1 [Compound 120, 2-(5-fluoro-2-(3-(1-(2-morpholinoethyl)-1H-indazole-3-carboxamido)-4-(piperidin-1-yl)benzamido)phenyl)acetic acid] | > 25 |
| CC1CCN(c2ccc(C(=O)Nc3ccc(F)cc3CC(=O)O)cc2NC(=O)c2nn(CC(F)(F)F)c3ccccc23)CC1 [Example 64] | 1.2 |
| O=C(O)Cc1cc(F)ccc1NC(=O)c1ccc(N2CCCCC2)c(NS(=O)(=O)c2nn(CC(F)(F)F)c3ccccc23)c1 [Compound 114, 2-(5-fluoro-2-(4-(piperidin-1-yl)-3-((1-(2,2,2-trifluoroethyl)-1H-indazole)-3-sulfonamido)benzamido)phenyl)acetic acid] | > 25 |

Target: T2, LPL (native bovine milk protein) inactivated by ANGPTL4 (Bos taurus, UniProt P11151)
T2 construct: from tissue; host or cells: bovine milk (LPL); E. coli (GST-ANGPTL4)
T2 sequence (P11151 29-478): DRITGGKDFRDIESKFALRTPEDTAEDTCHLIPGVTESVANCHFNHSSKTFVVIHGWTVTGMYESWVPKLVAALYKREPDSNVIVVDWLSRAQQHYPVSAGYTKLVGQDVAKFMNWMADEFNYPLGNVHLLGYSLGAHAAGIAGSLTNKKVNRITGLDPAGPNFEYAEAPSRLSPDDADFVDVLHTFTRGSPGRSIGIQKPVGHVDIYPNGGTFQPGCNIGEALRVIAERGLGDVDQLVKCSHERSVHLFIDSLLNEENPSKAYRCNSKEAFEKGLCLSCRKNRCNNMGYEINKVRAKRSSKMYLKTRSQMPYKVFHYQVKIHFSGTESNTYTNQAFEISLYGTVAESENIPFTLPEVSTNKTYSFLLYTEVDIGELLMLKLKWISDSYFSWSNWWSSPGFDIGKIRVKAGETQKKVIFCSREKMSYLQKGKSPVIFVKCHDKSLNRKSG
Experiment: LPL ANGPTL4 protection assay (LPL fluorescence assay, resorufin butyrate substrate)
Type: biochemical
Settings: LPL activation activity, LPL 2.5 nM, ANGPTL4 20 nM
Procedure: LPL is inactivated by angiopoietin-like 4 (ANGPTL4). Compounds of the present disclosure were for activity using the following protection assay. Briefly, the assay was performed in a black opaque 96-well microtiter plate with final volume of 100 μL using a buffer consisting of 50 mM HEPES (pH 7.2), 150 mM NaCl and 0.03% Triton X-100. Compounds were prepared as 10 mM stocks in DMSO, with subsequent serial dilutions performed in DMSO. Two microliters of test compounds were added to the microtiter plate, followed by 49-PL of LPL (native bovine milk protein affinity purified using heparin-affinity chromatography) in assay buffer. The plate contents were mixed using an orbital shaker and allowed to incubate for 5 minutes at room temperature. The enzymatic assay was initiated by the addition of a mixture of 49 μL of 50 μM resorufin butyrate (Santa Cruz #sc-208302; prepared from a 10 mM DMSO stock) and ANGPTL4 (N-terminal GST construct consisting of residues 26-164 expressed in E. coli) in assay buffer. The final concentrations of LPL and ANGPTL4 were 2.5 nM and 20 nM, respectively. The assay was allowed to proceed at 30° C. for 25 minutes with kinetic monitoring (Ex560/Em585) followed by an endpoint reading which was used for analysis.
Data was analyzed in Graphpad Prism (version 6.0, GraphPad Software, Inc., San Diego, CA) using a variable slope four parameter fit of the equation:
Y=Bottom+(Top-Bottom)/(1+10^((Log EC50−X)*HillSlope)),
where X is the concentration of test compound, Y corresponds to the amount of product expressed in relative fluorescence units, and Top and Bottom refer to the plateaus of the curve. Percent activation (protection) of test compound was calculated relative to zero effect wells (ZEW; LPL, ANGPTL4 and substrate) and maximum effect wells (MEW; LPL plus substrate): ((test well−ZEW)/(MEW−ZEW))*100.

| EC50 [µM] | Structure (SMILES) |
| --- | --- |
| 3.2 | O=C(O)Cc1ccccc1NC(=O)c1ccc(N2CCCCC2)c(NC(=O)c2cc3n(n2)CCCC3)c1 [Compound 161, 2-(2-(4-(piperidin-1-yl)-3-(4,5,6,7-tetrahydropyrazolo[1,5-a]pyridine-2-carboxamido)benzamido)phenyl)acetic acid] |
| 9.41 | Cc1ccc(NC(=O)c2cc(-n3cc4ccc(-c5nnn[nH]5)cc4n3)ccc2N2CCCCC2)cc1 [Compound 167, 5-(6-(1H-tetrazol-5-yl)-2H-indazol-2-yl)-2-(piperidin-1-yl)-N-(p-tolyl)benzamide] |
| 6.38 | Cc1ccc(NC(=O)c2cc(NCc3cc(-c4nnn[nH]4)ccc3F)ccc2N2CCCCC2)cc1 [Compound 169, 5-((2-fluoro-5-(1H-tetrazol-5-yl)benzyl)amino)-2-(piperidin-1-yl)-N-(p-tolyl)benzamide] |
| 4.13 | Cn1nc(C(=O)Nc2cc(C(=O)Nc3ccccc3CC(=O)O)ccc2N2CCCCC2)cc1-c1ccccc1 [Compound 163, 2-(2-(3-(1-methyl-5-phenyl-1H-pyrazole-3-carboxamido)-4-(piperidin-1-yl)benzamido)phenyl)acetic acid] |
| 5.16 | O=C(Nc1ccc(-c2nnn[nH]2)cc1)c1ccc(N2CCCCC2)c(NC(=O)c2nn(CC(F)(F)F)c3ccccc23)c1 [Compound 164, N-(5-((4-(1H-tetrazol-5-yl)phenyl)carbamoyl)-2-(piperidin-1-yl)phenyl)-1-(2,2,2-trifluoroethyl)-1H-indazole-3-carboxamide] |
| 14.9 | Cc1ccc(NC(=O)c2cc(NCc3ccc(-c4nsc(=O)[nH]4)cc3)ccc2N2CCCCC2)cc1 [Compound 168, N-(4-methylphenyl)-5-({[4-(5-oxo-4,5-dihydro-1,2,4-thiadiazol-3-yl)phenyl]methyl}amino)-2-(piperidin-1-yl)benzamide] |
| 7.99 | Cn1nc(C(=O)Nc2cc(C(=O)Nc3ccc(-c4nnn[nH]4)cc3)ccc2N2CCCCC2)c2ccc(F)cc21 [Compound 165, N-(5-((4-(1H-tetrazol-5-yl)phenyl)carbamoyl)-2-(piperidin-1-yl)phenyl)-6-fluoro-1-methyl-1H-indazole-3-carboxamide] |

The remaining lines, values behind:

| Structure (SMILES) | EC50 [µM] |
| --- | --- |
| CC(C)n1nc(C(=O)Nc2cc(C(=O)Nc3ccc(F)cc3CC(=O)O)ccc2N2CCCCC2)c2ccccc21 [Compound 162, 2-(5-fluoro-2-(3-(1-isopropyl-1H-indazole-3-carboxamido)-4-(piperidin-1-yl)benzamido)phenyl)acetic acid] | 3.25 |
| CCn1nc(C(=O)Nc2cc(C(=O)Nc3ccc(F)cc3CC(=O)O)ccc2N2CCCCC2)c2ccccc21 [Compound 160, 2-(2-(3-(1-ethyl-1H-indazole-3-carboxamido)-4-(piperidin-1-yl)benzamido)-5-fluorophenyl)acetic acid] | 1.66 |
